Our source for the IC50 and inhibition values is US20240400586A1, “HETEROARYL DERIVATIVE PARP INHIBITOR AND USE THEREOF” (HAISCO PHARMACEUTICAL GROUP CO., LTD., priority 2021, published 2024).

One test concerns the target PARP-1 enzyme (Homo sapiens (Human), UniProt P09874). The test can be described thus: PARP1 enzyme activity test (BPS Bioscience chemiluminescence kit). The class given is biochemical. From the text: Inhibition %=(1−(RLUsample−RLUmin)/(RLUmax−RLUmin))×100% (formula 1)
Test [1] has as its system breast tumor cells MDA-MB-436. Kind of test: MDA-MB-436 cell activity test (CellTiter-Glo, 7 days). The class given is cell-based. The conditions noted are these: Homo sapiens, MDA-MB-436, 168 h, 7 days incubation; for inhibition at 10 µM: read-out: MDA-MB-436 Max inh. % 10 μM; for IC50: read-out: MDA-MB-436 cell inhibitory activity IC50. On the procedure: Breast tumor cells MDA-MB-436 were purchased from ATCC, the culture medium was Leibovitz's L-15+10% FBS, and the cells were cultured in a CO2-free incubator at 37° C. On day 1, the cells in the exponential growth phase were collected, and the cell suspension was adjusted to 4000 cells/135 μL with the culture medium. 135 μL of the cell suspension was added to each well of a 96-well cell culture plate and incubated overnight. On day 2, compounds at different concentrations were added, and the plate was placed in the incubator and incubated for 7 days. After the incubation was completed, according to operation instructions for a CellTiter-Glo kit (Promega, G7573), 75 μL of CTG solution, which was already pre-melted and equilibrated to room temperature, was added to each well, and the mixture was uniformly mixed for 2 min using a microplate shaker. The plate was placed at room temperature for 10 min, and then […] were measured using an Envision2104 plate reader (PerkinElmer). The inhibition rate was calculated using formula (1), where RLUcompound was the readout of the drug treated group, RLUcontrol was the average value of the vehicle control group, and RLUblank was the average value of the cell-free well. The IC50 value was calculated using GraphPad Prism software.
A general note: In ATP-based viability assays light output follows the ATP content of the culture.

PARP-1 enzyme, sequence (P09874 whole entry): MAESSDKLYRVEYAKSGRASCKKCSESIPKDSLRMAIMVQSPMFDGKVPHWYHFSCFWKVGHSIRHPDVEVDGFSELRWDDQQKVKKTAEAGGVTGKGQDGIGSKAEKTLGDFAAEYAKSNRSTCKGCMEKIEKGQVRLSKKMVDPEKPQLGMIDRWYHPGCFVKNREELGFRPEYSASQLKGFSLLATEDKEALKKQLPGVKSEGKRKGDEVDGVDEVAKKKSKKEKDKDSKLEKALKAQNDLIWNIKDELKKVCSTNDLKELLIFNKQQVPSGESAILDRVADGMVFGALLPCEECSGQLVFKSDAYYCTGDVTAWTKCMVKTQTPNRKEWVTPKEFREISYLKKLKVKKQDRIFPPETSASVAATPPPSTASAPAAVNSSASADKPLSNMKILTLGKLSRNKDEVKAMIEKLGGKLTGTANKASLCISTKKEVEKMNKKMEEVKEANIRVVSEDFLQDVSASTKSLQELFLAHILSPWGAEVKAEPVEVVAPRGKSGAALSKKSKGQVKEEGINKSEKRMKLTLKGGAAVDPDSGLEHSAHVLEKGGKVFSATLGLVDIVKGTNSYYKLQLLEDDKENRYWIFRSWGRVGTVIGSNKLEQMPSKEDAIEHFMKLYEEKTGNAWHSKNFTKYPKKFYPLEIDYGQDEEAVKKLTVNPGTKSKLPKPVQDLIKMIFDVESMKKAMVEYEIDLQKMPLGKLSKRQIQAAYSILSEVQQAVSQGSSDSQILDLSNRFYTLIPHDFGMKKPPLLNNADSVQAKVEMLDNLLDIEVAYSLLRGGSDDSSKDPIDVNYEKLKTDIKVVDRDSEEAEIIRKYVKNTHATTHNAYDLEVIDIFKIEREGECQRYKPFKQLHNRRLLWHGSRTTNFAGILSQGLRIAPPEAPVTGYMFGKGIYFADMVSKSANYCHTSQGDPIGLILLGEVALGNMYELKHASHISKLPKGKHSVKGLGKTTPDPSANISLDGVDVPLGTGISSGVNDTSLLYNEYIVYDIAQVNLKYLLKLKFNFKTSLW

What is called IC50 is the concentration that gives 50% inhibition. `CCc1cc2ncc(CN3CCN(c4ccc(NC(=O)[C@@H]5CC5(F)F)nc4)CC3)cc2[nH]c1=O` (single isomer, unassigned) [Compound 50] displayed an IC50 on PARP-1 enzyme of 0.69 nM. Further, in test [1], the inhibition at 10 µM was 92.9% and the IC50 worked out at 3 nM.

As for `CCc1cc2ncc(CN3CCN(c4ccc(NC(=O)[C@H]5CC5(F)F)nc4)CC3)cc2[nH]c1=O` (single isomer, unassigned) [Compound 51], the IC50 against PARP-1 enzyme worked out at 0.66 nM. Besides, in test [1], the inhibition at 10 µM is 95.6% and the IC50 was 8.5 nM.

In the case of `CCc1cc2ncc(CN3CCN(c4cnc(C(=O)NC)c(F)c4)CC3)cc2[nH]c1=O` [Compound 6, 5-(4-((7-ethyl-6-oxo-5,6-dihydro-1,5-naphthyridin-3-yl)methyl)piperazin-1-yl)-3-fluoro-N-methylpicolinamide], on PARP-1 enzyme, the IC50 was found to be 0.56 nM. In addition, in test [1], the inhibition at 10 µM worked out at 85.7% and the IC50 amounted to 10 nM.

At PARP-1 enzyme, `CCc1cc2ncc(CN3CCN(c4ccc(NC(=O)C5CC5)nc4)CC3)cc2[nH]c1=O` [Compound 9, N-(5-(4-((7-ethyl-6-oxo-5,6-dihydro-1,5-naphthyridin-3-yl)methyl)piperazin-1-yl)pyridin-2-yl)cyclopropanecarboxamide] came in with an IC50 of 0.73 nM. Besides, in test [1], the inhibition at 10 µM was found to be 86.2% and the IC50 came to 6 nM.

`CCc1cc2ncc(CN3CCN(c4ccc(C(=O)NC5CCC5)nc4)CC3)cc2[nH]c1=O` [Compound 10, N-cyclobutyl-5-(4-((7-ethyl-6-oxo-5,6-dihydro-1,5-naphthyridin-3-yl)methyl)piperazin-1-yl)picolinamide] showed an IC50 against PARP-1 enzyme of 0.56 nM. Besides, in test [1], the inhibition at 10 µM is 94.2% and the IC50 was found to be 17 nM.

For the compound `CCc1cc2ncc(CN3CCN(c4ccc(C(=O)N[C@@H]5C[C@@H]5F)nc4)CC3)cc2[nH]c1=O` [Compound 11, 5-(4-((7-ethyl-6-oxo-5,6-dihydro-1,5-naphthyridin-3-yl)methyl)piperazin-1-yl)-N-((1R,2S)-2-fluorocyclopropyl)picolinamide], the values for the IC50 (on PARP-1 enzyme; in test [1]) were 0.54 nM and 6 nM, respectively. For the same compound, the inhibition at 10 µM in test [1] is 85.2%.

On to `CCc1cc2ncc(CN3CCN(c4cn5cc(C)nc5cn4)CC3)cc2[nH]c1=O` [Compound 15, 3-ethyl-7-((4-(2-methylimidazo[1,2-a]pyrazin-6-yl)piperazin-1-yl)methyl)-1,5-naphthyridin-2 (1H)-one], for which the IC50 against PARP-1 enzyme amounted to 0.65 nM.

In the case of `CCc1cc2ncc(CN3CCN(c4ccc(C(=O)NC5CCNCC5)nc4)CC3)cc2[nH]c1=O` [Compound 16, 5-(4-((7-ethyl-6-oxo-5,6-dihydro-1,5-naphthyridin-3-yl)methyl)piperazin-1-yl)-N-(piperidin-4-yl)picolinamide], the IC50 at PARP-1 enzyme stood at 0.51 nM.

The compound `CCc1cc2ncc(CN3CCN(c4ccc(C(=O)NC5CCN(C)CC5)nc4)CC3)cc2[nH]c1=O` [Compound 17, 5-(4-((7-ethyl-6-oxo-5,6-dihydro-1,5-naphthyridin-3-yl)methyl)piperazin-1-yl)-N-(1-methylpiperidin-4-yl)picolinamide] gave an IC50 on PARP-1 enzyme of 0.35 nM.

`CCc1cc2ncc(CN3CCN(c4ccc(C(=O)N[C@@H]5CCNC5)nc4)CC3)cc2[nH]c1=O` [Compound 18, (R)-5-(4-((7-ethyl-6-oxo-5,6-dihydro-1,5-naphthyridin-3-yl)methyl)piperazin-1-yl)-N-(pyrrolidin-3-yl)picolinamide] gave an IC50 at PARP-1 enzyme of 0.33 nM.

In turn, `CCc1cc2ncc(CN3CCN(c4ccc(C(=O)N[C@H]5CCNC5)nc4)CC3)cc2[nH]c1=O` [Compound 20, (S)-5-(4-((7-ethyl-6-oxo-5,6-dihydro-1,5-naphthyridin-3-yl)methyl)piperazin-1-yl)-N-(pyrrolidin-3-yl)picolinamide] displayed an IC50 against PARP-1 enzyme of 0.32 nM.

Consider `CCc1cc2ncc(CN3CCN(c4ccc(C(=O)NC5CNC5)nc4)CC3)cc2[nH]c1=O` [Compound 22, N-(azetidin-3-yl)-5-(4-((7-ethyl-6-oxo-5,6-dihydro-1,5-naphthyridin-3-yl)methyl)piperazin-1-yl)picolinamide], for which the IC50 against PARP-1 enzyme was 0.51 nM. In test [1], the inhibition at 10 µM was determined as 89.4% and the IC50 was found to be 12 nM.

For the compound `CCc1cc2ncc(CN3CCN(c4ccc(C(=O)Nc5cnn(C)c5)nc4)CC3)cc2[nH]c1=O` [Compound 23, 5-(4-((7-ethyl-6-oxo-5,6-dihydro-1,5-naphthyridin-3-yl)methyl)piperazin-1-yl)-N-(1-methyl-1H-pyrazol-4-yl)picolinamide], on PARP-1 enzyme, 0.67 nM corresponded to half-maximal inhibition (IC50). For the same compound, in test [1], the inhibition at 10 µM worked out at 84.2% and the IC50 was 1.4 nM.

`CCc1cc2ncc(CN3CCN(c4ccc(C(=O)NCCOC)nc4)CC3)cc2[nH]c1=O` [Compound 24, 5-(4-((7-ethyl-6-oxo-5,6-dihydro-1,5-naphthyridin-3-yl)methyl)piperazin-1-yl)-N-(2-methoxyethyl)picolinamide]: at PARP-1 enzyme, the IC50 stood at 0.73 nM. Also, in test [1], the inhibition at 10 µM amounted to 82.3% and the IC50 came out at 9 nM.

The compound `CCc1cc2ncc(CN3CCN(c4ccc(C(=O)NC5CC(F)(F)C5)nc4)CC3)cc2[nH]c1=O` [Compound 25, N-(3,3-difluorocyclobutyl)-5-(4-((7-ethyl-6-oxo-5,6-dihydro-1,5-naphthyridin-3-yl)methyl)piperazin-1-yl)picolinamide] had an IC50 against PARP-1 enzyme of 0.88 nM. In test [1], the inhibition at 10 µM turned out to be 99% and the IC50 worked out at 16 nM.

As for `CCc1cc2ncc(CN3CCN(c4ccc(NC(=O)C5CC(F)(F)C5)nc4)CC3)cc2[nH]c1=O` [Compound 26, N-(5-(4-((7-ethyl-6-oxo-5,6-dihydro-1,5-naphthyridin-3-yl)methyl)piperazin-1-yl)pyridin-2-yl)-3,3-difluorocyclobutane-1-carboxamide], on PARP-1 enzyme, the IC50 is 0.48 nM. In test [1], the inhibition at 10 µM was 86.3% and the IC50 came to 18 nM.

`CCc1cc2ncc(CN3CCN(c4ccc5nc(C)cn5n4)CC3)cc2[nH]c1=O` [Compound 27, 3-ethyl-7-((4-(2-methylimidazo[1,2-b]pyridazin-6-yl)piperazin-1-yl)methyl)-1,5-naphthyridin-2 (1H)-one]: the midpoint of inhibition against PARP-1 enzyme, the IC50, lay at 0.75 nM.

In turn, `CCc1cc2ncc(CN3CCN(c4ccc(-c5cnn[nH]5)nc4)CC3)cc2[nH]c1=O` [Compound 29, 7-((4-(6-(1H-1,2,3-triazol-5-yl)pyridin-3-yl)piperazin-1-yl)methyl)-3-ethyl-1,5-naphthyridin-2 (1H)-one] returned an IC50 against PARP-1 enzyme of 0.45 nM.

With `CCc1cc2ncc(CN3CCN(c4ccc(-c5ccn[nH]5)nc4)CC3)cc2[nH]c1=O` [Compound 30, 7-((4-(6-(1H-pyrazol-5-yl)pyridin-3-yl)piperazin-1-yl)methyl)-3-ethyl-1,5-naphthyridin-2 (1H)-one], the IC50 at PARP-1 enzyme came to 0.45 nM.

Compound `CCc1cc2ncc(CN3CCN(c4ccc5nc(C)nn5c4)CC3)cc2[nH]c1=O` [Compound 31, 3-ethyl-7-((4-(2-methyl-[1,2,4]triazolo[1,5-a]pyridin-6-yl)piperazin-1-yl)methyl)-1,5-naphthyridin-2 (1H)-one] registered an IC50 against PARP-1 enzyme of 1.7 nM.

Compound `CCc1cc2ncc(CN3CCN(c4ccc(Nc5ccn(C)n5)nc4)CC3)cc2[nH]c1=O` [Compound 32, 3-ethyl-7-((4-(6-((1-methyl-1H-pyrazol-3-yl)amino)pyridin-3-yl)piperazin-1-yl)methyl)-1,5-naphthyridin-2 (1H)-one] had an IC50 at PARP-1 enzyme of 2 nM.

`CCc1cc2ncc(CN3CCN(c4ccc(NC(=O)[C@H]5CCN(C)C5)nc4)CC3)cc2[nH]c1=O` [Compound 36, (S)—N-(5-(4-((7-ethyl-6-oxo-5,6-dihydro-1,5-naphthyridin-3-yl)methyl)piperazin-1-yl)pyridin-2-yl)-1-methylpyrrolidine-3-carboxamide]: the IC50 against PARP-1 enzyme worked out at 0.58 nM.

Compound `CCc1cc2ncc(CN3CCN(c4cn5cc(C(F)(F)F)nc5cn4)CC3)cc2[nH]c1=O` [Compound 43, 3-ethyl-7-((4-(2-(trifluoromethyl)imidazo[1,2-a]pyrazin-6-yl)piperazin-1-yl)methyl)-1,5-naphthyridin-2 (1H)-one] came in with an IC50 on PARP-1 enzyme of 0.93 nM.

For the compound `CCc1cn2cc(N3CCN(Cc4cnc5cc(CC)c(=O)[nH]c5c4)CC3)ncc2n1` [Compound 44, 3-ethyl-7-((4-(2-ethylimidazo[1,2-a]pyrazin-6-yl)piperazin-1-yl)methyl)-1,5-naphthyridin-2 (1H)-one], on PARP-1 enzyme, the IC50 came out at 0.92 nM.

For the compound `CCc1cc2ncc(CN3CCN(c4cn5cc(C(F)F)nc5cn4)CC3)cc2[nH]c1=O` [Compound 45], the IC50 at PARP-1 enzyme was 0.73 nM.

Compound `CCc1cc2ncc(CN3CCN(c4ccc(C(=O)NC5CN(c6ccccc6)C5)nc4)CC3)cc2[nH]c1=O` [Compound 46, 5-(4-((7-ethyl-6-oxo-5,6-dihydro-1,5-naphthyridin-3-yl)methyl)piperazin-1-yl)-N-(1-phenylazetidin-3-yl)picolinamide] came in with an IC50 on PARP-1 enzyme of 0.56 nM.

`CCc1cc2ncc(CN3CCN(c4ccc(C(=O)Nc5ccn(C)n5)nc4)CC3)cc2[nH]c1=O` [Compound 48, 5-(4-((7-ethyl-6-oxo-5,6-dihydro-1,5-naphthyridin-3-yl)methyl)piperazin-1-yl)-N-(1-methyl-1H-pyrazol-3-yl)picolinamide] had an IC50 at PARP-1 enzyme of 0.35 nM.
